Data: patent US12161630B2, “Methods to control infection using new generation small molecule growth inhibitors” (priority 2017, dated 2024)
Values after ≈ are worked out from the molar mass of the structure shown.

How the values were obtained:
S. typhimurium WT = test: MIC and MBC dose-response, serotype Typhimurium; format: cell-based, Salmonella enterica subsp. enterica serovar Typhimurium LT2; conditions: for MIC/MBC: Salmonella serotype Typhimurium, MIC identical to MBC
Experimental: (§1) An overnight Salmonella suspension was normalized at 0.05 OD600 (approximately 3.5×10^7 CFU/ml) with an adjusted M9 minimal broth medium (12.7 mM Na2HPO4 7H2O; 22 mM KH2PO4; 18.7 mM NH4Cl; 2 mM MgSO4; 0.1 mM CaCl2; 0.4% glucose; 0.05% casamino acids). 100 μL of the suspension plus 2 μl of SMs (200 μM) were transferred into each well of a sterile, non-treated, flat bottom 96-well plate. Bacteria alone (negative control, NC), 2% DMSO plus bacteria (DMSO control), 20 μg/ml chloramphenicol or 50 μg/ml kanamycin plus bacteria (positive controls, PC), and M9 medium only were used as control. Plates were incubated in a Sunrise™ Tecan kinetic microplate reader for 12 hrs at 37° C. and the optical density (OD) was measure at 600 nm as described above. Percentage of inhibition=(OD600 SM−OD600 NC)/(OD600 NC)×100. […] Cultures from wells showing no turbidimetric increase were transferred onto a XLT4 agar plate. Plates were incubated at 37° C. for 36 hrs.
(§2) Screens were performed as described in the primary screen. The lowest SM concentration with a static effect was considered as the minimal inhibitory concentration (MIC) and the lowest SM concentration with a cidal effect was considered as the minimal bactericidal concentration (MBC).

Salmonella Javiana = test: MIC and MBC dose-response, serotype Javiana; format: cell-based, Salmonella enterica; conditions: MIC identical to MBC
Experimental: as §1, §2

[1] = tested on: S. typhimurium cell membrane and nucleic acids; test: Confocal microscopy of SM-challenged S. typhimurium (FM4-64, SYTO9); format: cell-based, Salmonella enterica subsp. Enterica serotype Typhimurium; conditions: 5×MBC of SMs for 3 hrs; compared to DMSO control
Description: FIG. 13. Confocal and scanning electron microscopy (SEM) analyses of Salmonella enterica subsp. Enterica serotype Typhimurium after challenge with five times the minimal bactericidal concentration of small molecules (5×MBC of SMs) for 3 hrs. (A-O) Confocal microscopy: (A-E) S. typhimurium cell membrane stained with FM4-64; (F-J) S. typhimurium nucleic acids stained with SYTO9; (K-O) Merged pictures of the FM4-64 and SYTO9 staining. (P-S) SEM: (P) 1% dimethyl sulfoxide (DMSO) treated Salmonella; (Q) SM1 treated Salmonella; (R) SM4 treated Salmonella; (S) SM5 treated Salmonella; Bar: 1 μm.

sheep red blood cells = test: Hemolytic activity in sheep RBCs; format: cell-based; conditions: 200 μM, one-hour treatment
Experimental: Briefly, 200 μl of 10% sheep red blood cells (RBCs; LAMPIRE Biological Laboratories, Pipersville, PA) suspension was incubated with 1 μl of SMs (200 μM) for one hour at 37° C. in a sterile, non-treated, flat bottom plate 96-well. After incubation, the plate was centrifuged at 4000 rpm for 5 min at 4° C., then placed on ice for five min. 100 μL of the supernatant was transferred into a new sterile, treated, flat bottom 96-well plate, and the OD was measured at 540 nm. For this experiment, 2% DMSO (negative control) and 0.1% Triton-100X (positive control) were used. % Hemolysis=(OD540 SM−OD540 DMSO)/(OD540 1× triton−OD540 PBS)×100. Similar experiment was performed with chicken RBCs (OARDC, Ohio).

Kan^R S. typhimurium = test: Salmonella clearance in one-week-old infected broiler chickens; format: in vivo; conditions: 100 μg orally twice daily for 5 days; for reduction in Salmonella population inside the ceca: compared to DMSO group; for Chicken tissues positive for Salmonella: Ceca / Chicken tissues positive for Salmonella: Livers / Chicken tissues positive for Salmonella: Spleens: n = 10
Experimental: FIG. 7. Experimental design of the Salmonella clearance study in one-week-old infected broiler chickens. Salmonella-free chickens were orally infected with 10^4 S. typhimurium units per chickens (0 DPI). After confirmation of the intestinal colonization by Salmonella (1 DPI), ten chicks per treatment were treated twice a day for five days with 100 μg of SMs (3 DPI to 7 DPI). Ceca, liver, and spleen tissues were collected at 8 DPI. DPI: days post-inoculation.
Effect of selected SMs on the survival of S. typhimurium in one-week-old SFP chickens: One-week-old Salmonella-free chickens were orally inoculated with approximately 10^4 Kan^R S. typhimurium bacteria. A rectal swab was collected to confirm the intestinal colonization by Salmonella at one day post-inoculation (DPI). At 3 DPI, chickens were treated orally twice a day for five days with a specific treatment of approximately 920 μg/kg SMs per dose. Details of the treatment groups are described in Table 7. Feeders were taken off one hour before the treatment and put back one hour after the treatment. Following the five days of treatment, chickens were euthanized and tissues were aseptically collected (ceca, liver, and spleen). One of the cecum was immediately stored at −80° C. after sampling for microbiota studies. Ceca, spleens, and livers tissues were suspended in 2, 3, and 5 mL of 1×PBS respectively and grinded. 1 mL of the undiluted homogenized tissue mix was enriched in 9 mL of tetrathionate broth (TTB) medium for 18 hrs at 37° C. The rest of the homogenized tissues were serial ten-fold diluted, plated on XLT4 agar plate supplemented with 50 μg/ml kanamycin, and incubated for 36 hrs at 37° C. Bacterial counts were compared with the DMSO control group.

Salmonella Braenderup = test: MIC and MBC dose-response, serotype Braenderup; format: cell-based, Salmonella enterica; conditions: MIC identical to MBC
M. gallisepticum = test: Activity on avian pathogens at 200 μM, M. gallisepticum; format: cell-based, Mycoplasma gallisepticum
Experimental: FIGS. 1(A-E). Selection of potent Salmonella growth inhibitors. FIG. 1A: High-throughput screening of 4182 SMs against S. typhimurium WT at 200 μM. Negative value: growth inhibition; Positive value: growth stimulation compared to S. typhimurium growth not treated. The black line represents growth inhibition caused by 2% DMSO. FIG. 1B: Activity of 19 S. typhimurium growth inhibitors against additional Salmonella serotypes. Light grey cells: total growth inhibition; dark grey cells: bacterial growth observed; black cells: not determined. FIG. 1C: Dose-response assays of the selected 19 SMs against S. typhimurium WT. […] The black line represents a cut off of nine serotypes killed per SM. FIG. 1E: Activity spectra of the selected four SMs at 200 μM each on several avian-pathogens (Campylobacter jejuni, Escherichia coli APEC, and Mycoplasma gallisepticum) and beneficial gut bacteria (remaining species). E. coli APEC refers to Avian Pathogenic E. coli and includes E. coli O1, O2, O8, O15, O18, O35, O78, O109, and O115. Light grey cells: cidal effect; dark grey cells: bacterial growth observed. Left side: phylogenetic tree based on NCBI taxonomic ID built with PhyloT software.
The selected four SMs were tested on twelve beneficial-commensal gut bacteria at 200 μM (FIG. 1E). […] These four SMs were also growth inhibitors of other avian pathogens at 200 μM (unpublished data, FIG. 1E). […] The antimicrobial activity seemed not to be influenced by the taxonomic classification, however the SM5 bacterial target may be less present in prokaryotes than the drug target of the other three SMs.

Structure (SMILES)	MIC/MBC (S. typhimurium WT)	MIC/MBC (Salmonella Javiana)	FM4-64 cell membrane staining phenotype [1]	hemolytic activity in sheep RBCs (sheep red blood cells)	reduction in Salmonella population inside the ceca (Kan^R S. typhimurium)	Chicken tissues positive for Salmonella: Ceca (Kan^R S. typhimurium)	Chicken tissues positive for Salmonella: Livers (Kan^R S. typhimurium)	Chicken tissues positive for Salmonella: Spleens (Kan^R S. typhimurium)	MIC/MBC (Salmonella Braenderup)	effect against M. gallisepticum (M. gallisepticum)	MBC (S. typhimurium WT; Salmonella enterica, TYPHIMURIUM, read-out: MBCAlone of SM)
CC1CCC(C(C)C)C(OC(=O)Cn2c[n+](CC(=O)OC3CC(C)CCC3C(C)C)c3ccccc32)C1.[Cl-] (stereo not drawn) [SM1, 1,3-bis{2-[(2-isopropyl-5-methylcyclohexyl)oxy]-2-oxoethyl}-1H-3,1-benzimidazol-3-ium chloride]	50 µM	100 µM	No signal was detected	> 50%	did not show any reduction	90%	40%	50%	100 µM		
CCCCCCCCCCCCCCCC[n+]1ccn(CC#N)c1.[Cl-] [SM3, 1-(cyanomethyl)-3-hexadecyl-1H-imidazol-3-ium chloride]	25 µM	25 µM	No signal was detected		did not show any reduction	80%	60%	50%	25 µM	killed	
CCCCCCCCCCCCCCCCn1c[n+](C)c2ccccc21.[Br-] [SM4, 1-hexadecyl-3-methyl-1H-3,1-benzimidazol-3-ium bromide]	10 µM	10 µM	No signal was detected			40%	30%	20%	10 µM	killed	
CCOc1cc(/C=N/N=C(N)N)ccc1OCc1ccc(Cl)cc1 [SM5, N″-{4-[(4-chlorobenzyl)oxy]-3-ethoxybenzylidene}carbonohydrazonic diamide]	25 µM (≈ 8.67 µg/mL)	50 µM (≈ 17.3 µg/mL)	stained cell membrane; however, a bright red spot was detected within every bacterium	lower than 1%		70%	40%	30%	50 µM (≈ 17.3 µg/mL)	killed	25 µM (≈ 8.67 µg/mL)
